# Measurements as given in patent US7767659B2, “Synthesis of naturally occurring ecteinascidins and related compounds” (Pharma Mar, S.A., priority 2002, dated 2010).
# Columns and labels:
# A-549 = test: cells; settings: Homo sapiens, A549, 48 h; for GI50: read-out: A549 GI50; for CC50: read-out: A549 LC50; for IC (TGI): read-out: A549 TGI
# How it was run: (§1)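 Colorimetric SRB read (490 nm) on triplicate wells after 48 h at 37 °C, 5% CO2. Dose range 10 to 10^−8 μg/ml; 5×10^3 cells/well pre-attached 18 h.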
# LoVo = test: cells; settings: Homo sapiens, LoVo, 48 h; for GI50: read-out: LOVO GI50; for CC50: read-out: LOVO LC50; for IC (TGI): read-out: LOVO TGI
# How it was run: as §1
# HT-29 = test: cells; settings: Homo sapiens, HT-29, 48 h; for GI50: read-out: HT29 GI50; for CC50: read-out: HT29 LC50; for IC (TGI): read-out: HT29 TGI
# How it was run: as §1
# LNCaP = test: Inhibition of cells growth by colorimetric assay (SRB); settings: Homo sapiens, LNCaP, 48 h; for GI50: read-out: LNCAP GI50; for CC50: read-out: LNCAP LC50; for IC (TGI): read-out: LNCAP TGI
# How it was run: as §1
# SK-BR-3 = test: as above; settings: Homo sapiens, SK-BR-3, 48 h; for GI50: read-out: SK-BR3 GI50; for CC50: read-out: SK-BR3 LC50; for IC (TGI): read-out: SK-BR3 TGI
# How it was run: as §1
# HeLa-APL = test: as above; settings: Homo sapiens, 48 h; for GI50: read-out: HELA-APL GI50; for CC50: read-out: HELA-APL LC50; for IC (TGI): read-out: HELA-APL TGI
# How it was run: as §1
# DU-145 = test: as above; settings: Homo sapiens, DU-145, 48 h; for GI50: read-out: DU145 GI50; for CC50: read-out: DU145 LC50; for IC (TGI): read-out: DU145 TGI
# How it was run: as §1
# SK-MEL-28 = test: as above; settings: Homo sapiens, SK-MEL-28, 48 h; for GI50: read-out: MEL-28 GI50; for CC50: read-out: MEL-28 LC50; for IC (TGI): read-out: MEL-28 TGI
# How it was run: as §1
# PANC-1 = test: as above; settings: Homo sapiens, PANC-1, 48 h; for GI50: read-out: PANC-1 GI50; for CC50: read-out: PANC-1 LC50; for IC (TGI): read-out: PANC-1 TGI
# How it was run: as §1
# HeLa = test: as above; settings: Homo sapiens, HeLa, 48 h; for GI50: read-out: HELA GI50; for CC50: read-out: HELA LC50; for IC (TGI): read-out: HELA TGI
# How it was run: as §1
# LoVo-Dox = test: as above; settings: Homo sapiens, 48 h; for GI50: read-out: LOVO-DOX GI50; for CC50: read-out: LOVO-DOX LC50; for IC (TGI): read-out: LOVO-DOX TGI
# How it was run: as §1
# IGROV-ET = test: as above; settings: Homo sapiens, 48 h; for GI50: read-out: IGROV-ET GI50; for CC50: read-out: IGROV-ET LC50; for IC (TGI): read-out: IGROV-ET TGI
# How it was run: as §1
# IGROV-1 = test: as above; settings: Homo sapiens, IGROV-1, 48 h; for GI50: read-out: IGROV GI50; for CC50: read-out: IGROV LC50; for IC (TGI): read-out: IGROV TGI
# How it was run: as §1
# K-562 = test: as above; settings: Homo sapiens, K562, 48 h; for GI50: read-out: K562 GI50; for CC50: read-out: K562 LC50; for IC (TGI): read-out: K562 TGI
# How it was run: as §1
structure (smiles),measurement,setting,value
COc1c(C)cc2c(c1O)[C@H]1N[C@@H](C2)[C@H](O)N2C1[C@@H]1SC[C@]3(NCCc4c3[nH]c3ccc(O)cc43)C(=O)OC[C@H]2c2c3c(c(C)c(OC(C)=O)c21)OCO3 (stereo partly drawn) [compound 65],GI50,A-549,22.9 nM
same,CC50,A-549,313 nM
same,IC (TGI),A-549,56 nM
same,GI50,LoVo,6.78 nM
same,CC50,LoVo,2960 nM
same,IC (TGI),LoVo,36.9 nM
same,GI50,HT-29,4.51 nM
same,CC50,HT-29,13200 nM
same,IC (TGI),HT-29,196 nM
same,GI50,LNCaP,0.875 nM
same,CC50,LNCaP,6.16 nM
same,IC (TGI),LNCaP,2.54 nM
same,GI50,SK-BR-3,2.97 nM
same,CC50,SK-BR-3,209 nM
same,IC (TGI),SK-BR-3,7.66 nM
same,GI50,HeLa-APL,2 nM
same,CC50,HeLa-APL,8.46 nM
same,IC (TGI),HeLa-APL,4.1 nM
same,GI50,DU-145,2.63 nM
same,CC50,DU-145,4770 nM
same,IC (TGI),DU-145,6.45 nM
same,GI50,SK-MEL-28,3.78 nM
same,CC50,SK-MEL-28,42 nM
same,IC (TGI),SK-MEL-28,10.8 nM
same,GI50,PANC-1,3.99 nM
same,CC50,PANC-1,4250 nM
same,IC (TGI),PANC-1,12.3 nM
same,GI50,HeLa,2.34 nM
same,CC50,HeLa,9.99 nM
same,IC (TGI),HeLa,4.82 nM
same,GI50,LoVo-Dox,399 nM
same,CC50,LoVo-Dox,13200 nM
same,IC (TGI),LoVo-Dox,1050 nM
same,GI50,IGROV-ET,76 nM
same,CC50,IGROV-ET,3300 nM
same,IC (TGI),IGROV-ET,406 nM
same,GI50,IGROV-1,4.07 nM
same,CC50,IGROV-1,2990 nM
same,IC (TGI),IGROV-1,11.4 nM
same,GI50,K-562,1.22 nM
same,CC50,K-562,7800 nM
same,IC (TGI),K-562,13.9 nM
COc1c(C)cc2c(c1O)[C@H]1N[C@@H](C2)[C@H](O)N2C1[C@@H]1SC[C@]3(NCCc4c3[nH]c3ccc(C)cc43)C(=O)OC[C@H]2c2c3c(c(C)c(OC(C)=O)c21)OCO3 (stereo partly drawn) [compound 66],GI50,A-549,7.62 nM
same,CC50,A-549,874 nM
same,IC (TGI),A-549,39.7 nM
same,GI50,LoVo,5.27 nM
same,CC50,LoVo,4350 nM
same,IC (TGI),LoVo,20.9 nM
same,GI50,HT-29,5.86 nM
same,CC50,HT-29,13200 nM
same,IC (TGI),HT-29,181 nM
same,GI50,LNCaP,1.99 nM
same,CC50,LNCaP,7.39 nM
same,IC (TGI),LNCaP,3.83 nM
same,GI50,SK-BR-3,6.5 nM
same,CC50,SK-BR-3,13200 nM
same,IC (TGI),SK-BR-3,331 nM
same,GI50,HeLa-APL,3.05 nM
same,CC50,HeLa-APL,12.7 nM
same,IC (TGI),HeLa-APL,6.24 nM
same,GI50,DU-145,3.39 nM
same,CC50,DU-145,3860 nM
same,IC (TGI),DU-145,1.6 nM
same,GI50,SK-MEL-28,5.34 nM
same,CC50,SK-MEL-28,74.5 nM
same,IC (TGI),SK-MEL-28,18.9 nM
same,GI50,PANC-1,4.57 nM
same,CC50,PANC-1,6400 nM
same,IC (TGI),PANC-1,23.4 nM
same,GI50,HeLa,2.41 nM
same,CC50,HeLa,9.07 nM
same,IC (TGI),HeLa,4.68 nM
same,GI50,LoVo-Dox,370 nM
same,CC50,LoVo-Dox,13200 nM
same,IC (TGI),LoVo-Dox,1890 nM
same,GI50,IGROV-ET,38.3 nM
same,CC50,IGROV-ET,5590 nM
same,IC (TGI),IGROV-ET,179 nM
same,GI50,IGROV-1,2.99 nM
same,CC50,IGROV-1,160 nM
same,IC (TGI),IGROV-1,6.76 nM
same,GI50,K-562,4.33 nM
same,CC50,K-562,484 nM
same,IC (TGI),K-562,12.5 nM
C=CCN1[C@@H]2c3c(cc(C)c(OC)c3O)C[C@H]1[C@H](O)N1C2[C@@H]2SC[C@]3(NCCc4cc(O)c(OC)cc43)C(=O)OC[C@H]1c1c3c(c(C)c(OC(C)=O)c12)OCO3 (stereo partly drawn) [compound 67],GI50,A-549,32.7 nM
same,CC50,A-549,797 nM
same,IC (TGI),A-549,68.7 nM
same,GI50,LoVo,28.6 nM
same,CC50,LoVo,10600 nM
same,IC (TGI),LoVo,73 nM
same,GI50,HT-29,37.9 nM
same,CC50,HT-29,11900 nM
same,IC (TGI),HT-29,102 nM
same,GI50,LNCaP,3 nM
same,CC50,LNCaP,37.4 nM
same,IC (TGI),LNCaP,9 nM
same,GI50,SK-BR-3,8.71 nM
same,CC50,SK-BR-3,284 nM
same,IC (TGI),SK-BR-3,37.4 nM
same,GI50,HeLa-APL,29.7 nM
same,CC50,HeLa-APL,327 nM
same,IC (TGI),HeLa-APL,64.7 nM
same,GI50,DU-145,35.9 nM
same,CC50,DU-145,3500 nM
same,IC (TGI),DU-145,75.4 nM
same,GI50,SK-MEL-28,20.4 nM
same,CC50,SK-MEL-28,100 nM
same,IC (TGI),SK-MEL-28,45.3 nM
same,GI50,PANC-1,27.4 nM
same,CC50,PANC-1,2780 nM
same,IC (TGI),PANC-1,92.7 nM
same,GI50,HeLa,30.2 nM
same,CC50,HeLa,395 nM
same,IC (TGI),HeLa,67.4 nM
same,GI50,LoVo-Dox,368 nM
same,CC50,LoVo-Dox,12700 nM
same,IC (TGI),LoVo-Dox,975 nM
same,GI50,IGROV-ET,26.8 nM
same,CC50,IGROV-ET,2680 nM
same,IC (TGI),IGROV-ET,62.7 nM
same,GI50,IGROV-1,31.2 nM
same,CC50,IGROV-1,685 nM
same,IC (TGI),IGROV-1,78.6 nM
same,GI50,K-562,33.9 nM
same,CC50,K-562,2090 nM
same,IC (TGI),K-562,39.7 nM
